The test system of assay [1] is T47D (PI3Kα-H1047R) cell line. Briefly: HTRF phospho-AKT(S473) cell assay in T47D cells. Format: cell-based, human. Particulars: Homo sapiens, 2 hours compound incubation. Summed up:
(§1)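 T47D: RPMI + 10% FBS + 0.2 units/mL insulin, top 5 μM. SKBR3: McCoy's 5A + 10% FBS, top 10 μM, 70 ng/ml PDGF-BB last 15 min. Both: 12-pt 1:3, 2 h, 37° C, max 0.5% DMSO; HTRF pAKT(S473); IC50.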

In assay [2] the test system is SKBR3 (PI3Kα-Wild Type) cell line. As to the kind of experiment: HTRF phospho-AKT(S473) cell assay in SKBR3 cells. Particulars: Homo sapiens, SK-BR-3, 2 hours compound incubation, PDGF-BB stimulated. In kind it is cell-based, human. Summed up: as §1
[3] abbreviates: T47D (PI3Kα-H1047R) cells, HTRF phospho-AKT(S473).
[4] abbreviates: SKBR3 (PI3Kα-Wild Type) cells, HTRF phospho-AKT(S473).
Setting [5] is: HTRF phospho-AKT(S473), T47D (PI3Kα-H1047R) cells.
[6] abbreviates: HTRF phospho-AKT(S473), SKBR3 (PI3Kα-Wild Type) cells.

Structures are written as SMILES. Some results are limits rather than exact numbers.

Regarding `Cc1cc([C@@H](C)Nc2ccc(Cl)nc2C(=O)NS(C)(=O)=O)c2nc(N3CCC4(CCN(c5ccn(C)n5)CC4)CC3)n(C)c(=O)c2c1` [Compound 361, (R)-6-chloro-3-((1-(3,6-dimethyl-2-(9-(1-methyl-1H-pyrazol-3-yl)-3,9-diazaspiro[5.5]undecan-3-yl)-4-oxo-3,4-dihydroquinazolin-8-yl)ethyl)amino)-N-(methylsulfonyl) picolinamide], the values for the half-maximal inhibitory concentration (IC50) in assay [1] (setting [3]) and in assay [2] (setting [4]) were 250 to 500 nM and not below 5000 nM, respectively.

As to `Cc1cc([C@@H](C)Nc2ccc(Cl)nc2C(=O)NS(C)(=O)=O)c2nc(N3C[C@@H]4[C@H](C3)[C@H]4c3cn(C(C)C)nn3)n(C)c(=O)c2c1` [Compound 528, 6-chloro-3-(((R)-1-(2-((1R,5S,6R)-6-(1-isopropyl-1H-1,2,3-triazol-4-yl)-3-azabicyclo[3.1.0]hexan-3-yl)-3,6-dimethyl-4-oxo-3,4-dihydroquinazolin-8-yl)ethyl)amino)-N-(methylsulfonyl) picolinamide], the figures for the IC50 in assay [1] (setting [5]) and in assay [2] (setting [6]) were less than 250 nM and 1000 to 5000 nM, respectively.

On to `CC(=O)N1CCN(c2ccc(-c3nc4c([C@@H](C)Nc5ccc(Cl)nc5C(=O)NS(C)(=O)=O)cc(C)cc4c(=O)n3C)cn2)CC1` [Compound 175, (R)-3-((1-(2-(6-(4-acetylpiperazin-1-yl)pyridin-3-yl)-3,6-dimethyl-4-oxo-3,4-dihydroquinazolin-8-yl)ethyl)amino)-6-chloro-N-(methylsulfonyl) picolinamide], for which the IC50 in assay [1] (setting [3]) is less than 250 nM; in assay [2] (setting [4]), 1000 to 5000 nM.

As to `Cc1cc([C@@H](C)Nc2ccc(Cl)nc2C(=O)NS(C)(=O)=O)c2nc(N3CCC(c4cn(C)nn4)CC3)n(C)c(=O)c2c1` [Compound 480, (R)-6-chloro-3-((1-(3,6-dimethyl-2-(4-(1-methyl-1H-1,2,3-triazol-4-yl)piperidin-1-yl)-4-oxo-3,4-dihydroquinazolin-8-yl)ethyl)amino)-N-(methylsulfonyl) picolinamide], the IC50 in assay [1] (setting [5]) was less than 250 nM; in assay [2] (setting [6]) it was 1000 to 5000 nM.

Regarding `Cc1cc([C@@H](C)Nc2ccc(Cl)nc2C(=O)NS(C)(=O)=O)c2nc(N3CCC[C@H](c4ccncc4)C3)n(C)c(=O)c2c1` (relative stereo) [Compound 205, 6-chloro-3-(((R)-1-(3,6-dimethyl-4-oxo-2-((R*)-3-(pyridin-4-yl)piperidin-1-yl)-3,4-dihydroquinazolin-8-yl)ethyl)amino)-N-(methylsulfonyl) picolinamide], the results for the IC50 in assay [1] (setting [3]) and in assay [2] (setting [4]) were less than 250 nM and 1000 to 5000 nM, respectively.

`Cc1cc([C@@H](C)Nc2ccc(Cl)nc2C(=O)NS(C)(=O)=O)c2nc(N3CCC(C)(c4ccn(C)n4)CC3)n(C)c(=O)c2c1` [Compound 301, (R)-6-chloro-3-((1-(3,6-dimethyl-2-(4-methyl-4-(1-methyl-1H-pyrazol-3-yl)piperidin-1-yl)-4-oxo-3,4-dihydroquinazolin-8-yl)ethyl)amino)-N-(methylsulfonyl) picolinamide]: the IC50 is less than 250 nM in assay [1] (setting [3]) and not below 5000 nM in assay [2] (setting [4]).

As to `Cc1cc([C@@H](C)Nc2ccc(Cl)nc2C(=O)NS(C)(=O)=O)c2nc([C@H]3[C@@H]4CN(c5nccc(C)n5)C[C@@H]43)n(C)c(=O)c2c1` [Compound 826, 6-chloro-3-(((R)-1-(3,6-dimethyl-2-((1R,5S,6r)-3-(4-methylpyrimidin-2-yl)-3-azabicyclo[3.1.0]hexan-6-yl)-4-oxo-3,4-dihydroquinazolin-8-yl)ethyl)amino)-N-(methylsulfonyl) picolinamide], the IC50 is 250 to 500 nM in assay [1] (setting [5]) and not below 5000 nM in assay [2] (setting [6]).

In the case of `Cc1cc([C@@H](C)Nc2ccc(Cl)nc2C(=O)NS(C)(=O)=O)c2nc(N3Cc4cccc(-c5cnn(C)c5)c4C3)n(C)c(=O)c2c1` [Compound 273, (R)-6-chloro-3-((1-(3,6-dimethyl-2-(4-(1-methyl-1H-pyrazol-4-yl)isoindolin-2-yl)-4-oxo-3,4-dihydroquinazolin-8-yl)ethyl)amino)-N-(methylsulfonyl) picolinamide], the values for the 50% inhibitory concentration (IC50) in assay [1] (setting [3]) and in assay [2] (setting [4]) were less than 250 nM and not below 5000 nM, respectively.

`Cc1cc([C@@H](C)Nc2ccc(Cl)nc2C(=O)NS(C)(=O)=O)c2nc(N3CCC(c4cc(C)[nH]n4)CC3)n(C)c(=O)c2c1` [Compound 715, (R)-6-chloro-3-((1-(3,6-dimethyl-2-(4-(5-methyl-1H-pyrazol-3-yl)piperidin-1-yl)-4-oxo-3,4-dihydroquinazolin-8-yl)ethyl)amino)-N-(methylsulfonyl) picolinamide]: the IC50 is less than 250 nM in assay [1] (setting [5]) and 1000 to 5000 nM in assay [2] (setting [6]).

For `C[C@@H](Nc1ccc(Cl)nc1C(=O)NS(C)(=O)=O)c1cc(Cl)cc2c(=O)n(C)c(N3CCC(c4nn(C)cc4F)CC3)nc12` [Compound 431, (R)-6-chloro-3-((1-(6-chloro-2-(4-(4-fluoro-1-methyl-1H-pyrazol-3-yl)piperidin-1-yl)-3-methyl-4-oxo-3,4-dihydroquinazolin-8-yl)ethyl)amino)-N-(methylsulfonyl) picolinamide], the IC50 in assay [1] (setting [3]) was 250 to 500 nM; in assay [2] (setting [4]), 1000 to 5000 nM.

Consider `Cc1cc([C@@H](C)Nc2ccc(Cl)nc2C(=O)NS(C)(=O)=O)c2nc(N3Cc4cn(Cc5ccccc5)nc4C3)n(C)c(=O)c2c1` [Compound 684, (R)-3-((1-(2-(2-benzyl-2,6-dihydropyrrolo[3,4-c]pyrazol-5(4H)-yl)-3,6-dimethyl-4-oxo-3,4-dihydroquinazolin-8-yl)ethyl)amino)-6-chloro-N-(methylsulfonyl) picolinamide], for which the IC50 in assay [1] (setting [5]) is less than 250 nM; in assay [2] (setting [6]), 1000 to 5000 nM.

For `Cc1cc([C@@H](C)Nc2ccc(Cl)nc2C(=O)NS(C)(=O)=O)c2nc(N3CCC[C@H](Oc4cnccn4)C3)n(C)c(=O)c2c1` [Compound 377, 6-chloro-3-(((R)-1-(3,6-dimethyl-4-oxo-2-((S)-3-(pyrazin-2-yloxy)piperidin-1-yl)-3,4-dihydroquinazolin-8-yl)ethyl)amino)-N-(methylsulfonyl) picolinamide], the results for the IC50 in assay [1] (setting [3]) and in assay [2] (setting [4]) were 250 to 500 nM and not below 5000 nM, respectively.

In the case of `Cc1cc([C@@H](C)Nc2ccc(Cl)nc2C(=O)NS(C)(=O)=O)c2nc(N3CC[C@H](c4ccc(C)nc4)C3)n(C)c(=O)c2c1` (relative stereo) [Compound 660, 6-chloro-3-(((R)-1-(3,6-dimethyl-2-((R*)-3-(6-methylpyridin-3-yl)pyrrolidin-1-yl)-4-oxo-3,4-dihydroquinazolin-8-yl)ethyl)amino)-N-(methylsulfonyl) picolinamide], the 50% inhibitory concentration (IC50) in assay [1] (setting [5]) was 250 to 500 nM; in assay [2] (setting [6]) it was not below 5000 nM.

As to `Cc1cc([C@@H](C)Nc2ccc(Cl)nc2C(=O)NS(C)(=O)=O)c2nc(N3CC[C@H](Nc4ncccn4)C3)n(C)c(=O)c2c1` [Compound 540, 6-chloro-3-(((R)-1-(3,6-dimethyl-4-oxo-2-((S)-3-(pyrimidin-2-ylamino)pyrrolidin-1-yl)-3,4-dihydroquinazolin-8-yl)ethyl)amino)-N-(methylsulfonyl) picolinamide], the IC50 in assay [1] (setting [5]) is 250 to 500 nM; in assay [2] (setting [6]) it was not below 5000 nM.

For `Cc1cc([C@@H](C)Nc2ccc(Cl)nc2C(=O)NS(C)(=O)=O)c2nc(N3Cc4cn(C)nc4C3)n(C)c(=O)c2c1` [Compound 396, (R)-6-chloro-3-((1-(3,6-dimethyl-2-(2-methyl-2,6-dihydropyrrolo[3,4-c]pyrazol-5(4H)-yl)-4-oxo-3,4-dihydroquinazolin-8-yl)ethyl)amino)-N-(methylsulfonyl) picolinamide], the figures for the IC50 in assay [1] (setting [3]) and in assay [2] (setting [4]) were less than 250 nM and 1000 to 5000 nM, respectively.

As for `[2H]C([2H])([2H])n1cc(-c2ccc(-c3nc4c([C@@H](C)Nc5ccc(Cl)nc5C(=O)NS(C)(=O)=O)cc(C)cc4c(=O)n3C)cn2)cn1` [Compound 855, (R)-6-chloro-3-((1-(3,6-dimethyl-2-(6-(1-(methyl-d3)-1H-pyrazol-4-yl)pyridin-3-yl)-4-oxo-3,4-dihydroquinazolin-8-yl)ethyl)amino)-N-(methylsulfonyl) picolinamide], the IC50 in assay [1] (T47D (PI3Kα-H1047R) cell line, phospho-AKT(S473) HTRF) is less than 250 nM; in assay [2] (SKBR3 (PI3Kα-Wild Type) cell line, phospho-AKT(S473) HTRF), 1000 to 5000 nM.

Regarding `CC(=O)N1CCN(c2ccc(-c3nc4c([C@@H](C)Nc5ccc(Cl)nc5C(=O)NS(C)(=O)=O)cc(C)cc4c(=O)n3C)c(F)c2)CC1` [Compound 785, (R)-3-((1-(2-(4-(4-acetylpiperazin-1-yl)-2-fluorophenyl)-3,6-dimethyl-4-oxo-3,4-dihydroquinazolin-8-yl)ethyl)amino)-6-chloro-N-(methylsulfonyl) picolinamide], the IC50 was less than 250 nM in assay [1] (setting [5]) and 1000 to 5000 nM in assay [2] (setting [6]).

Regarding `Cc1ccn([C@H]2[C@@H]3CN(c4nc5c([C@@H](C)Nc6ccc(Cl)nc6C(=O)NS(C)(=O)=O)cc(C)cc5c(=O)n4C)C[C@@H]32)c(=O)c1` [Compound 754, 6-chloro-3-(((R)-1-(3,6-dimethyl-2-((1R,5S,6S)-6-(4-methyl-2-oxopyridin-1(2H)-yl)-3-azabicyclo[3.1.0]hexan-3-yl)-4-oxo-3,4-dihydroquinazolin-8-yl)ethyl)amino)-N-(methylsulfonyl) picolinamide], the IC50 in assay [1] (setting [5]) is less than 250 nM; in assay [2] (setting [6]), not below 5000 nM.

For the compound `Cc1cc([C@@H](C)Nc2ccc(Cl)nc2C(=O)NS(C)(=O)=O)c2nc(C3(c4ccccc4)CC3)n(C)c(=O)c2c1` [Compound 830, (R)-6-chloro-3-((1-(3,6-dimethyl-4-oxo-2-(1-phenylcyclopropyl)-3,4-dihydroquinazolin-8-yl)ethyl)amino)-N-(methylsulfonyl) picolinamide], the IC50 in assay [1] (setting [5]) was 250 to 500 nM; in assay [2] (setting [6]), not below 5000 nM.
